Assay results reported in US9730906B2, “α-derivatives of cis-monounsaturated fatty acids for use as medicines” (UNIVERSITAT DE LES ILLES BALEARS, priority 2008, dated 2017).

What was measured:
[1] = tested on: Human glioma cells (U118); assay: Differentiation of human glioma cells (U118); assay type: cell-based; conditions: 200 μM
From the text: FIG. 16B. Human glioma cells (U118) are astrocytes of the central nervous system ([…]) that have lost their differentiation (Control). […] This differentiating activity can be involved in neuroregenerative processes necessary for recovery of motor activity.
This effect may be due to the induction of neural projection sprouting necessary to re-establish connections lost by the nerve fibre lesion.

SF-268 = assay: Effect of OHOD on cancer cells in culture (Table 2); assay type: cell-based, human; parameters: key: + [inhibition of growth]; ++ [total halt of growth]; +++ [total removal of tumour cells]; conditions: SF-268, Glioma
Procedure: (§1) Also, a series of α-derivatives of cis-monounsaturated fatty acids were used to investigate their effectiveness in cancer treatment. Two types of experiment were performed. Firstly, the dependency of the anti-tumour effect on concentration was investigated. To perform these experiments, human lung cancer cells (A549) were cultivated in RPMI medium, supplemented with 10% foetal bovine […], 10 mM Hepes (pH 7.4), 2 mM glutamine, 2 g/l bicarbonate, 1 g/l glucose, 100 units/ml penicillin, 0.1 mg/ml streptomycin, 0.25 μg/ml Amphotericin B, at 37° C. and in the presence of 5% CO2. In a first experimental series, these cells were treated with various concentrations (0-400 μM) of OHOD and MOD11 and the number of cells was determined by flow cytometry (FIG. 3A). […] In a second series, the anti-tumour effectiveness on A549 lung cancer cells was investigated at a single concentration (150 μM) and a time of 48 hours (FIG. 3B). […] Obviously, among the previous molecules, some lacked both modifications on the α-carbon and the double bond in cis configuration (EO, HDO, ODO) and had no therapeutic effect.
(§2) In a second experimental series, designed to discover whether these molecules are effective in treatment of different types of tumours, the effect of OHOD at various concentrations on human cells of different types of cancer was studied. These experiments were performed as described before, except that the M220 and HT-29 cell lines were cultured in DMEM medium and the MDA-MB-231 line was incubated in Leibowitz L-15 medium supplemented with 15% foetal bovine […]. […] Where the nature of the tumour process requires, application can be topical (use on the skin of active products for the treatment of melanoma and other cutaneous abnormalities of cancerous nature), which can be considered as cosmetic treatments when attempts are made to correct aesthetic defects.

MCF7 = assay: as above; assay type: cell-based, human; parameters: key: + [inhibition of growth]; ++ [total halt of growth]; +++ [total removal of tumour cells]; conditions: MCF7, Breast
Procedure: as §1, §2

NCI-H460 = assay: as above; assay type: cell-based, human; parameters: key: + [inhibition of growth]; ++ [total halt of growth]; +++ [total removal of tumour cells]; conditions: NCI-H460, Lung (CPNM)
Procedure: as §1, §2

PC3 = assay: as above; assay type: cell-based, human; parameters: key to Anti-tumour effect: + [inhibition of growth]; ++ [total halt of growth]; +++ [total removal of tumour cells]; conditions: PC3, Prostate
Procedure: as §1, §2

HL-60 = assay: as above; assay type: cell-based, human; parameters: key to Anti-tumour effect: + [inhibition of growth]; ++ [total halt of growth]; +++ [total removal of tumour cells]; conditions: HL-60, Myel-Leukaemia
Procedure: as §1, §2

C-6 = assay: as above; assay type: cell-based, human; parameters: key to Anti-tumour effect: + [inhibition of growth]; ++ [total halt of growth]; +++ [total removal of tumour cells]; conditions: C-6, Glio-Brain
Procedure: as §1, §2

aortas of SHR rats = assay: Contractile response induced by noradrenalin in isolated aorta, organ bath; parameters: species or system rat; conditions: aortas pre-treated 60 minutes in organ bath at 37° C., vs vehicle, p<0.05
Procedure: FIG. 11. Effect of OHOD on the contractile response induced by noradrenalin (NA) in aortas of SHR rats. The logarithm of NA is shown on the horizontal axis and the concentration (g) is shown on the vertical axis. The aortas were treated with OHOD (filled circles) or vehicle (empty circles) for 60 minutes in an organ bath at 37° C. in Ringer medium with oxygen.
Atherosclerosis or arteriosclerosis is a pathology characterised by the loss of contractility of blood vessels. This loss is associated with diverse factors, among which is the formation of deposits on the vascular lumen giving rise to the proliferation of vascular cells, reduction of blood flow and vasoconstrictor and vasodilator responses to neurotransmitters (such as noradrenalin) and to hormones. In studies in isolated rat aorta in organ bath, it was shown that the contraction power of the aortic muscle in response to noradrenalin increased very markedly after pre-treatments with OHOD acid. In addition, all the compounds with the structure of Formula I had similar effects on vascular muscle.

cadherin = assay: Cadherin levels in A549 cells (antibody, confocal microscopy); assay type: cell-based, human; conditions: 50 μM OHOD (48 h)
Procedure: FIG. 4. Cancer cells (A549) were incubated in the absence (FIG. 4A) and presence (FIG. 4B) of OHOD ([…], 48 h). Then they were fixed, incubated in the presence of an antibody against cadherin and were observed by confocal microscopy. Treatments with 50 μM OHOD (48 h) induced an increase of 73.6±5.4% in the levels of this protein. In treatments with the fatty acids of the invention, a significant increase in cadherin levels was observed.
(§3) Furthermore, α-derivatives of cis-monounsaturated fatty acids are capable of inducing cadherin expression. Cadherin is a cellular adhesion protein. Cells expressing cadherin are often not displaced from their tissue location as they adhere to the surrounding cells. Tumour cells that lose the capacity to synthesise this protein can migrate from the tissue in which they were generated to other body tissues where they can develop a new tumour focus by the process known as metastasis. In treatments with α-derivatives of cis-monounsaturated the fatty acids, a significant increase in cadherin levels was observed (FIG. 4). The invasive capacity of cancer cells was also investigated in a culture plate invasion model. […] Then, an area of the culture dish is scraped and the number of cells invading this region at various times, in the presence and absence of the anti-metastasis compound is counted.

lung cancer cells (A549) = assay: Culture plate invasion model, lung cancer cells (A549); assay type: cell-based, human; conditions: 50 μM and 100 μM, different times, vs untreated cells, p<0.05
Procedure: FIG. 5A. Invasive capacity of lung cancer cells (A549) in culture, in the absence (control, C) or presence of OHOD (2-hydroxy-9-cis-octadecenoic acid) at 50 μM (M50) and 100 μM (M100) and at different times.
FIG. 5B. Invasive capacity of lung cancer cells (A549) in culture, in the absence (control, C) or presence of OHOD (2-hydroxy-9-cis-octadecenoic acid) at 50 μM (M50) and 100 μM (M100) and at different times.
as §3

Compound	differentiation of glioma cells [1]	Anti-tumour effect (SF-268)	Anti-tumour effect (MCF7)	Anti-tumour effect (NCI-H460)	Anti-tumour effect (PC3)	Mechanism of action (PC3)	Anti-tumour effect (HL-60)	Mechanism of action (HL-60)	Anti-tumour effect (C-6)	Mechanism of action (C-6)	contractile response induced by noradrenalin (NA) (aortas of SHR rats)	increase in the levels of cadherin (cadherin)	invasive capacity (number of invasive cells) (lung cancer cells (A549))
CCCCCCCC/C=C\CCCCCCC(O)C(=O)[O-].[Na+] (stereo not shown) [Na-OHOD]	differentiate and develop towards the glial phenotype	–	–	–	–	–	–	–	–	–	–	–	–
CCCCCCCC/C=C\CCCCCCC(O)C(=O)O (stereo not drawn) [OHOD, α-Hydroxy-cis-Δ9-octadecenoic]	–	+++	+++	+++	+++	P A	+++	P D A	+++	P D	much higher	73.6±5.4%	lower invasive capacity
